Numbers after ± are expanded uncertainties.
Conditions: Crystal; for Normal melting temperature: DTA; for mass density: 298 K, 101.33 kPa, Pycnometric method

SMILES	Normal melting temperature [°C]	mass density [kg/m3]
Clc1ccc2c(Cl)ccnc2c1 [4,7-dichloroquinoline]	92.4 ± 0.5	–
Clc1ccc2ncccc2c1 [6-chloroquinoline]	46 ± 0.5	–
Clc1ccnc2ccccc12 [4-chloroquinoline]	35 ± 0.5	1251 ± 2
Clc1ccc2ccccc2n1 [2-chloroquinoline]	38.4 ± 0.5	1246 ± 2

Reference: the NIST ThermoML archive (doi:10.1016/j.jct.2005.03.011)
